Measured values as given in patent US20230202997A1, “CHROMANOL, QUINONE OR HYDROQUINONE COMPOUNDS FOR TREATMENT OF SEPSIS” (Sulfateq B.V., priority 2020, published 2023).

Key:
NO production in HUVEC = experiment: Endothelial NO production (nitrate in conditioned medium), basal and after LPS; format: cell-based, Human
Description: (§1) Human Umbilical Cord Endothelial Cells (HUVEC, Lonza CC-2519) were maintained on 1% gelatin-coated culture flasks in RPMI1640 medium containing 20% fetal bovine serum, 2 mM Glutamine (Sigma-Aldrich), 1% Penicillin-Streptomycin solution (Sigma-Aldrich) and 50 μg/ml Bovine Pituitary Extract (Invitrogen). HUVEC were passaged by trypsinization when the cultures reach a confluency of 70%. For all experiments, HUVEC were seeded at 0.6·10^5 cells/cm^2 and allowed to adhere for 24 hours.
Cellular production of NO was approximated by measuring nitrate concentrations in culture media using the Measure-IT™ High-Sensitivity Nitrite Assay Kit (#M36051, ThermoFisher) according to manufacturer's instructions. […] Therefore, nitrate concentrations in conditioned media are a good approximate to assess cellular NO production. 50 μl conditioned medium derived from a single 96-wells plate well was used per assay and normalized against protein concentration. All experiments were performed in quadruplicate.
Endotoxins suppress endothelial NO production by limiting the activity of eNOS. HUVEC were pre-treated with vehicle (DMSO), BN-80933, SUL-138, or SUL-150 or (all 10 μM) prior to endotoxin (LPS 100 ng/ml) exposure for 24 hours. The nitrate levels in the conditioned medium from endothelial cells exposed to LPS averaged at 160 pmol/mg protein (˜33% reduction versus non LPS exposed HUVEC, p=0.002), which was lower than basal control levels. BN-80933 further suppressed the nitrate levels in the conditioned medium (FIG. 7A) to an average of 90 pmol/mg protein (p=0.008).

[1] = test system: NO production in RAW264.7 macrophages; experiment: Macrophage NO production (nitrate in conditioned medium), basal and after LPS; format: cell-based, Mouse
Description: Mouse macrophage RAW264.7 cells (ATCC #TIB-71) were maintained in DMEM medium containing 10% fetal bovine serum, and 1% Penicillin-Streptomycin solution (Sigma-Aldrich). […] For all experiments, RAW264.7 cells were seeded at 0.5·10^5 cells/cm^2 and allowed to adhere for 24 hours. Cellular production of NO was approximated by measuring nitrate concentrations in culture media using the Measure-IT™ High-Sensitivity Nitrite Assay Kit (#M36051, ThermoFisher) according to manufacturer's instructions. […] Therefore, nitrate concentrations in conditioned media are a good approximate to assess cellular NO production. 50 μl conditioned medium derived from a single 96-wells plate well was used per assay and normalized against protein concentration. All experiments were performed in quadruplicate. LPS induces macrophage NO production by activating iNOS. RAW264.7 macrophages were pre-treated with vehicle (DMSO), BN-80933, SUL-138, or SUL-150 or (all 10 μM) prior to endotoxin (LPS 100 ng/ml) exposure for 24 hours. The nitrate levels in the conditioned medium from LPS exposed RAW264.7 macrophages averaged at 83 pmol/mg protein (˜16-fold increase versus non-exposed RAW264.7 cells, p=0.001).

[2] = test system: cytoplasmic oxidative stress in HUVEC; experiment: LPS-induced cellular superoxide in HUVEC (DHE); format: cell-based, Human; conditions: 10 μM for 30 min, LPS 100 ng/ml 24 hours
Description: as §1
(§2) The production of cellular and mitochondrial oxidative stress was measured using fluorescent probes for cellular and mitochondrial superoxide, i.e. dihydroethidium (DHE) and MitoSox (ThermoFisher), respectively. HUVEC were incubated with BN-80933, SUL-138 or SUL-150 (all 10 μM) for 30 min. Next, HUVEC were exposed to LPS (100 ng/ml) for an additional 24 hours. In the final hour of incubation, 2.5 μM of DHE or MitoSox was applied to each sample. HUVEC were washed in PBS and fixed in 4% paraformaldehyde at room temperature for 15 min. Nuclear staining was performed by 5 μM […] (DAPI) and fluorescence intensity of the samples was recorded in a CLARIOStar Plus plate reader (BMG Labtech) equipped with the appropriate filter sets. Fluorescence recordings for DHE and MitoSox were corrected for DAPI fluorescence. All experiments were performed in quadruplicate.

[3] = test system: mitochondrial oxidative stress in HUVEC; experiment: LPS-induced mitochondrial superoxide in HUVEC (MitoSox); format: cell-based, Human; conditions: 10 μM for 30 min, LPS 100 ng/ml 24 hours
Description: as §1, §2

TNFα mRNA expression [4] = experiment: Endothelial inflammatory activation after endotoxin, TNFα mRNA (Example 5); format: cell-based, Human; conditions: HUVEC; 10 μM for 30 min
Description: as §1
(§3) HUVEC cells were lysed in triZOL reagens (Invitrogen) and total RNA isolated according to manufacturers' instruction. 1 μg total RNA per sample was reverse transcribed using the FirstAid Reverse Transcription Kit (ThermoFisher). Copy-DNA equivalents of 5 ng total RNA were amplified on a ViiA7 Real-time PCR system (ThermoFisher, Waltham, Mass.) using iTaq Universal SYBR Green Supermix (Bio-Rad, Hercules, Calif.) and primers specific for tumor necrosis factor alpha (TNFα; sense 5′-[…]-3′, antisense 5′-[…]-3′), interleukin 1 beta (IL-1β; sense 5′-[…]-3′, antisense 5′-[…]-3′), interleukin-6 (IL-6; sense 5′-[…]-3′, antisense 5′-[…]-3′) and beta actin (ACTB; sense 5′-[…]-3′, antisense 5′-[…]-3′) as loading control. Amplification was performed for 40 cycles of 95° C. for 30 s, 60° C. for 1 min. Relative mRNA expression was calculated according to the δδCt-method.

IL-1β mRNA expression [5] = experiment: Endothelial inflammatory activation after endotoxin, IL-1β mRNA (Example 5); format: cell-based, Human; conditions: HUVEC; 10 μM for 30 min
Description: as §1, §3

IL-6 mRNA expression [6] = experiment: Endothelial inflammatory activation after endotoxin, IL-6 mRNA (Example 5); format: cell-based, Human; conditions: HUVEC; 10 μM for 30 min
Description: as §1, §3

HUVEC = experiment: Cell viability after hypothermia-rewarming stress (Neutral Red); format: cell-based, Human; conditions: 10 μM for 1 hour, 4° C. for 24 hours followed by 37° C. for 3 hours
Description: as §1
HUVEC were pre-treated with BN-80933, SUL-138 or SUL-150 (all 10 μM) for 1 hour in a humidified incubator at 37° C. Following pre-treatment, HUVEC were placed in a cold room (2-8° C.) for 24 hours and subsequently placed back at 37° C. for a 3 hour rewarming period. After 1 hour of rewarming, cell culture medium was replaced by prewarmed and filtered 0.4 mg/mL Neutral Red (#N463 8, Sigma-Aldrich) in culture medium. After the remaining 2 hour rewarming period, HUVEC were washed with PBS and NRU was solubilized in 100 μL resorption solution (50% ethanol, 1% ascetic acid in dH2O). The absorbance was measured at a wavelength of 550 nm on a BioTek ELx808 plate reader. The recorded OD550 nm values were normalized to control samples that were maintained at 37° C. at all times, which were assumed to be 100% viable.

TNFα mRNA expression [7] = experiment: Inhibition of LPS-induced TNFα mRNA expression in HUVEC; format: cell-based, Human; conditions: 10 μM for 30 min, then LPS 24 hours
Description: as §1
(§4) HUVEC and NRK52E cells were pre-incubated with SUL compounds (10 μM) for 30 min and subsequently exposed to LPS for 24 hours under standard culture conditions. Cells were lysed in triZOL reagens (Invitrogen) and total RNA isolated according to manufacturers' instruction. 1 μg total RNA per sample was reverse transcribed using the FirstAid Reverse Transcription Kit (ThermoFisher). Copy-DNA equivalents of 5 ng total RNA were amplified on a ViiA7 Real-time PCR system (ThermoFisher, Waltham, Mass.) using iTaq Universal SYBR Green Supermix (Bio-Rad, Hercules, Calif.) and primers specific for tumor necrosis factor alpha, interleukin 1 beta, interleukin-6 and beta actin as loading control. Amplification was performed for 40 cycles of 95° C. for 30 s, 60° C. for 1 min. Relative mRNA expression was calculated as 2^−(Cq^gene^−Cq^reference^) and normalized to unstimulated control cells (100% inhibition) and vehicle-treated and LPS exposed cells (0% inhibition). The following primers were used: […]

IL-1β mRNA expression [8] = experiment: Inhibition of LPS-induced IL-1β mRNA expression in HUVEC; format: cell-based, Human; conditions: 10 μM for 30 min, then LPS 24 hours
Description: as §1, §4

IL-6 mRNA expression [9] = experiment: Inhibition of LPS-induced IL-6 mRNA expression in HUVEC; format: cell-based, Human; conditions: 10 μM for 30 min, then LPS 24 hours
Description: as §1, §4

TNFα mRNA expression [10] = experiment: Inhibition of LPS-induced TNFα mRNA expression in NRK52E; format: cell-based, Rat; conditions: 10 μM for 30 min, then LPS 24 hours
Description: (§5) Rat kidney epithelial cells (ATCC #CRL-1571) were maintained in DMEM medium containing 10% fetal bovine serum, and 1% Penicillin-Streptomycin solution (Sigma-Aldrich). NRK52E cells were passaged by trypsinization when the cultures reached a confluency of 70%. For all experiments, NRK52E cells were seeded at 0.6·10^5 cells/cm^2 and allowed to adhere for 24 hours.
as §4

IL-1β mRNA expression [11] = experiment: Inhibition of LPS-induced IL-1β mRNA expression in NRK52E; format: cell-based, Rat; conditions: 10 μM for 30 min, then LPS 24 hours
Description: as §5, §4

IL-6 mRNA expression [12] = experiment: Inhibition of LPS-induced IL-6 mRNA expression in NRK52E; format: cell-based, Rat; conditions: 10 μM for 30 min, then LPS 24 hours
Description: as §5, §4

[13] = 10 μM pre-treatment, LPS 100 ng/ml for 24 hours

SMILES	inhibition of LPS-induced mRNA expression of TNFα (TNFα mRNA expression [7]) [%]	inhibition of LPS-induced mRNA expression of IL-1β (IL-1β mRNA expression [8]) [%]	inhibition of LPS-induced mRNA expression of IL-6 (IL-6 mRNA expression [9]) [%]	inhibition of LPS-induced mRNA expression of TNFα (TNFα mRNA expression [10]) [%]	inhibition of LPS-induced mRNA expression of IL-1β (IL-1β mRNA expression [11]) [%]	inhibition of LPS-induced mRNA expression of IL-6 (IL-6 mRNA expression [12]) [%]	other results
Cc1c(C)c2c(c(C)c1O)CC[C@@](C)(C(=O)N1CCN(c3ccc(NC(=N)c4cccs4)cc3)CC1)O2 [BN-80933, reference compound]							nitrate levels in the conditioned medium after LPS (NO production in HUVEC; [13]): 90 pmol/mg protein; suppression of basal endothelial NO production (nitrate in conditioned medium) (NO production in HUVEC; no LPS, 10 μM): ~38%; LPS-induced increase in extracellular nitrate level [1, 13]: blunted the LPS-induced increase in extracellular nitrate level; basal production of extracellular nitrate ([1]; no LPS, 10 μM): Neither BN-80933, SUL-138, nor SUL-150 affected the basal production of extracellular nitrate; LPS-induced cytoplasmic oxidative stress (DHE) [2]: mitigates the induction of cytoplasmic oxidative stress; LPS-induced mitochondrial oxidative stress (MitoSox) [3]: not affected by the pre-treatment with BN-80933; LPS-induced mRNA expression of TNFα (TNFα mRNA expression [4]): precludes the induction of mRNA expression of the pro-inflammatory cytokine TNFα; LPS-induced mRNA expression of IL-1β (IL-1β mRNA expression [5]): does not preclude the LPS-induced mRNA expression of the interleukins IL-1β and IL-6; LPS-induced mRNA expression of IL-6 (IL-6 mRNA expression [6]): does not preclude the LPS-induced mRNA expression of the interleukins IL-1β and IL-6; reduction in cell viability versus normothermic control cells (HUVEC): ~55%
Cc1c(C)c2c(c(C)c1O)CC[C@@](C)(C(=O)N[C@@H]1CCCNC1)O2 [SUL-13, (2S)-6-hydroxy-2,5,7,8-tetramethyl-N-((R)-piperidin-3-yl)-3,4-dihydro-1-benzopyran-2-carboxamide]	41.2 ± 8.2	38.6 ± 4.2	45.7 ± 9.1				
Cc1c(C)c2c(c(C)c1O)CCC(C)(C(N)=O)O2 (stereo not shown) [SUL-89, 6-hydroxy-2,5,7,8-tetramethyl-3,4-dihydro-2H-1-benzopyran-2-carboxamide, reference compound]				17.5 ± 3.4	12.3 ± 6.4	8.7 ± 4.6	
Cc1c(C)c2c(c(C)c1O)CCC(C)(C(=O)NCc1ccccc1)O2 (stereo not shown) [SUL-96, N-benzyl-6-hydroxy-2,5,7,8-tetramethyl-3,4-dihydro-2H-1-benzopyran-2-carboxamide]				85.4 ± 4.7	81.7 ± 7.2	89.9 ± 5.8	
COC(=O)CNC(=O)C1(C)CCc2c(C)c(O)c(C)c(C)c2O1 (stereo not shown) [SUL-99, methyl [(6-hydroxy-2,5,7,8-tetramethyl-3,4-dihydro-2H-1-benzopyran-2-carbonyl)amino]acetate, reference compound]	35.1 ± 6.2	31.5 ± 4.5	32.7 ± 8.1				
Cc1c(C)c2c(c(C)c1O)CCC(C)(C(=O)Nc1ccccc1)O2 (stereo not shown) [SUL-103, 6-hydroxy-2,5,7,8-tetramethyl-N-phenyl-3,4-dihydro-2H-1-benzopyran-2-carboxamide]				67.8 ± 7.8	59.2 ± 7.9	63.3 ± 1.4	
Cc1c(C)c2c(c(C)c1O)CCC(C)(C(=O)N[C@H](CO)c1ccccc1)O2 (stereo partly drawn) [SUL-129, 6-hydroxy-N-[(1S)-2-hydroxy-1-phenylethyl]-2,5,7,8-tetramethyl-3,4-dihydro-2H-1-benzopyran-2-carboxamide]				75.6 ± 6.4	75.9 ± 7.1	69.2 ± 2.6	
Cc1c(C)c(O)c(CC[C@@](C)(O)C(=O)N2CCN(CCO)CC2)c(C)c1O [SUL-138M2, 4-(2,5-dihydroxy-3,4,6-trimethylphenyl)-2-hydroxy-1-(4-(2-hydroxyethyl)piperazin-1-yl)-2-methylbutan-1-one]	58.1 ± 3.1	51.7 ± 8.0	55.2 ± 8.5				
